Measured values from US11759412B2, “Personal care compositions with glutathione precursor comprising 4-substituted resorcinols and amino acids” (Conopco, Inc., priority 2016, dated 2023).

Tests used:
Type in all cases: cell-based
[1] = tested on: Human Keratinocytes; experiment: Reactive Oxygen Species (ROS) Assay (CellROX green, menadione); settings: for % protection (improvement vs vehicle control + menadione), ROS / Mean ROS production (% of vehicle control) / synergistic decrease in ROS production, combination with GAP amino acids vs either alone: + menadione; for synergistic decrease in ROS production, combination with GAP amino acids vs either alone: resorcinol/test reagent combined with GAP
Procedure: Human Keratinocytes (Promocell, Heidelberg, Germany) were maintained in EpiLife® keratinocyte medium containing 60 uM calcium chloride and 1% Human Keratinocyte Growth Supplement (HKGS) in a humidified incubator with an atmosphere containing 5% CO2 at 37° C. The medium was refreshed every other day. Subsequently, cells were trypsinized at 90% confluency and seeded at a density of 1-2×10^4 per well into 96-well plates with black wall and clear bottom. On the second day after seeding, cell medium was replaced with Hank's Balanced Salt Solution (HBSS) with or without menadione (10-25 uM), GAP (typically at 49 uM pyroglutamic acid, 60 uM cystine, 194 uM glycine), GAP vehicle (0.2 mM NaOH, pH 7.5), above-described additional test reagents, or combinations of GAP with additional test reagents or L-cystine esters alone, and incubated for additional 18 hours. For ROS detection, CellROX green (Life Tech, Thermo Fisher Scientific, Rockford, USA) reagent was added into each well to a final concentration of 15-25 uM and incubated for additional 2-4 hours at 37° C. in a humidified incubator. The ROS fluorescence was detected using a Tecan microplate reader (Excitation/Emission=490/525). Relative ROS production was calculated with normalization based on the vehicle control treatment which was set to 100%. Where indicated, percent protection was calculated as a comparison to menadione alone treatment, using the measured relative fluorescent units in the following equation: […]
ROS levels were evaluated together with cell viability because it is possible to get a false negative for ROS if treatment is so toxic, that at the time of assay, cells are dead (and there are no longer any detectable ROS). Decrease in ROS levels is meaningful if cells are still viable.

[2] = tested on: Human Keratinocytes; experiment: Cell Viability Assay (CCK-8, menadione); settings: for cell viability (% vehicle of control): Table 3B
Procedure: Human Keratinocytes (Promocell, Heidelberg, Germany) were maintained in EpiLife® keratinocyte medium containing 60 uM calcium chloride and 1% Human Keratinocyte Growth Supplement (HKGS). The medium was refreshed every other day. Subsequently, cells were trypsinized at 90% confluency and seeded at a density of 2×10^4 per well into 96-well transparent tissue culture plates. On the second day after seeding, cell medium was replaced with treatments as described above in ROS assay section. After 18 hours, […] (CCK-8) reagent (Dojindo, Kumamoto, Japan) was diluted 1:10 in HBSS and incubated with cells for 4 h at 37° C. in a humidified incubator. Optical absorption at 450 nm was measured using a Tecan Safire2 plate reader. Relative viability was calculated with normalization based on the vehicle control treatment, which was set to 100%.
Where indicated, percent protection was calculated as a comparison to menadione alone treatment, using the measured relative absorbance units in the following equation: […]

[3] = tested on: Aged Human Keratinocytes; experiment: Glutathione Assay (total glutathione, GSH-GSSG Glo, menadione challenge); settings: for synergistic increase in GSH synthesis, combination with GAP amino acids vs either alone: resorcinol/test reagent combined with GAP, + menadione
Procedure: Aged Human Keratinocytes (Cascade Biologics, now ThermoFisher Scientific, Waltham, Mass.) were maintained in Epi Life® medium containing 60 uM calcium chloride and 1% Human Keratinocyte Growth Supplement (both media components from ThermoFisher Scientific) in a humidified incubator with an atmosphere containing 5% CO2 at 37° C. The medium was refreshed every 2-3 days. Subsequently, cells were trypsinized at 90% confluency and seeded at a density of 1×10^4 per well into 96-well plates with white wall and clear bottom. One or two days after seeding, cell medium was replaced with Hank's Balanced Salt Solution (HBSS), and keratinocytes were pre-treated with GAP (or 0.12-0.240 mM sodium hydroxide vehicle control, pH 7.5) alone or in combination with additional test reagents described above or L-cystine esters alone for 1-2 hours. The concentration of all amino acids constituting the GAP mixture used in this assay are designated in the data tables, and fully described in the abbreviations list below.
After one or two hours of pre-treatment with GAP or additional test reagents, alone or in combination, keratinocytes were then challenged with 25 uM menadione (Sigma-Aldrich), a known inducer of oxidative stress. After 18-20 hours, cells were harvested and analyzed for total glutathione levels using a commercially available kit (GSH-GSSG GLo Assay, Promega), a luminescence-based system for the detection and quantification of total glutathione in cultured cells. In summary, after cell treatment, the media was removed and replaced with a cell lysis reagent for 5 minutes at 20-25° C.; note, all remaining steps were also conducted at 20-25° C. Next, a luciferase generation reagent was added to each well and incubated for 30 minutes. Following this step, a luciferin detection reagent was added to each well and plates were incubated for 15 minutes. Finally, plates were then read for luminescence in a FlexStation 3 plate reader (Molecular Devices). Total glutathione levels were calculated after interpolation of glutathione concentrations from a standard curve. Experimental conditions were typically conducted in at least triplicate determinations. Statistical significance was calculated using 1-way ANOVA. Percent protection was calculated by using the calculated glutathione levels from each experiment in the following equation: […]

[4] = Table 1F, DTBC 20 uM + menadione
[5] = Table 1B, BR 50 uM where present, + menadione 25 uM
[6] = Table 2B, resorcinol (BR or IPR) 10 uM + menadione
[7] = Table 2B, resorcinol (BR or IPR) 50 uM + menadione
[8] = Table 2B, resorcinol (BR or IPR) 100 uM + menadione
[9] = Table 2E, BR 20 uM where present
[10] = Table 2E, BR 20 uM where present, + menadione
[11] = Table 3A, Olivetol or 3-hydroxytyrosol 10 uM + menadione
[12] = Table 3A, Olivetol or 3-hydroxytyrosol 20 uM + menadione
[13] = Table 3A, Olivetol or 3-hydroxytyrosol 50 uM + menadione
[14] = Table 2G, PER 10 uM + menadione
[15] = Table 2G, PER 20 uM + menadione
[16] = Table 2G, PER 50 uM + menadione
[17] = Table 2F, PER 20 uM where present
[18] = Table 2F, PER 20 uM where present, + menadione
[19] = Table 3D, 4-CHMR 10 uM + menadione
[20] = Table 3D, 4-CHMR 20 uM + menadione
[21] = Table 3D, 4-CHMR 50 uM + menadione
[22] = Table 1H, CDME 20 uM + menadione
[23] = Table 1H, CDME 40 uM + menadione
[24] = Table 1H, CDME 80 uM + menadione
[25] = Table 1H, CDME 160 uM + menadione

CC(C)(C)OC(=O)[C@@H](N)CSSC[C@H](N)C(=O)OC(C)(C)C.Cl.Cl [DTBC, Ditert-butyl L-cystinate dihydrochloride]
% Protection (improvement vs. vehicle control + menadione), ROS [1, 4]: 2.2% | % protection (improvement vs. vehicle control + menadione), cell viability [2, 4]: 6.0^1% | % protection (improvement vs. vehicle control + menadione), cell viability ([2]; Table 1F, DTBC 40 uM + menadione): 3.0^1% | % protection (improvement vs. vehicle control + menadione), cell viability ([2]; Table 1F, DTBC 80 uM + menadione): −0.1^1%

CCCCc1ccc(O)cc1O [BR, 4-butylresorcinol]
% Protection (improvement vs. vehicle control + menadione) [3, 5]: −1^1% | Glutathione Synthesis, Mean (uM glutathione) [3, 5]: 0.06^1 uM | % Protection (improvement vs. vehicle control + menadione) [3, 6]: 5% | Glutathione Synthesis, Mean (uM glutathione) [3, 6]: 0.10 µM | % Protection (improvement vs. vehicle control + menadione) [3, 7]: 3% | Glutathione Synthesis, Mean (uM glutathione) [3, 7]: 0.07 µM | % Protection (improvement vs. vehicle control + menadione) [3, 8]: 6% | Glutathione Synthesis, Mean (uM glutathione) [3, 8]: 0.13 µM | synergistic increase in GSH synthesis, combination with GAP amino acids vs either alone [3]: synergistic increase | % protection (improvement vs vehicle control + menadione), ROS [1, 9]: 0.95% | Mean ROS production (% of vehicle control) [1, 9]: 220.7% | synergistic decrease in ROS production, combination with GAP amino acids vs either alone [1]: synergistic decrease | % Protection (improvement vs vehicle control + menadione), cell viability [2, 10]: 11.75^3% | Cell viability (% of control) [2, 10]: 74.1^3%

OCCc1ccc(O)c(O)c1 [3-hydroxytyrosol]
% Protection (improvement vs vehicle control + menadione) [3, 11]: −3% | Glutathione Synthesis, Mean (uM glutathione) [3, 11]: 0.07 µM | % Protection (improvement vs vehicle control + menadione) [3, 12]: −5% | Glutathione Synthesis, Mean (uM glutathione) [3, 12]: 0.03 µM | % Protection (improvement vs vehicle control + menadione) [3, 13]: −4% | Glutathione Synthesis, Mean (uM glutathione) [3, 13]: 0.04 µM | synergistic increase in GSH synthesis, combination with GAP amino acids vs either alone [3]: no synergistic effect | ROS production (% of vehicle control) ([1]; Table 3B, 3-hydroxytyrosol 10 uM + menadione): 241.6% | ROS production (% of vehicle control) ([1]; Table 3B, 3-hydroxytyrosol 20 uM + menadione): 229.9^1% | synergistic decrease in ROS production, combination with GAP amino acids vs either alone [1]: no synergistic effect | cell viability (% vehicle of control) ([2]; 3-hydroxytyrosol 10 uM + menadione): 16.8% | cell viability (% vehicle of control) ([2]; 3-hydroxytyrosol 20 uM + menadione): 16.5%

CC(c1ccccc1)c1ccc(O)cc1O (centres unmarked) [PER, 4-(1-phenylethyl)resorcinol]
% Protection (improvement vs vehicle control + menadione) [3, 14]: −2% | Glutathione Synthesis, Mean (uM glutathione) [3, 14]: 0.12 µM | % Protection (improvement vs vehicle control + menadione) [3, 15]: 3% | Glutathione Synthesis, Mean (uM glutathione) [3, 15]: 0.25 µM | % Protection (improvement vs vehicle control + menadione) [3, 16]: 12% | Glutathione Synthesis, Mean (uM glutathione) [3, 16]: 0.50 µM | synergistic increase in GSH synthesis, combination with GAP amino acids vs either alone [3]: not observed | % protection (improvement vs vehicle control + menadione), ROS [1, 17]: −6.74% | Mean ROS production (% of vehicle control) [1, 17]: 321.5% | synergistic decrease in ROS production, combination with GAP amino acids vs either alone [1]: synergistic decrease | % Protection (improvement vs vehicle control + menadione), cell viability [2, 18]: 1.09% | Cell viability (% of control) [2, 18]: 62.3%

Cc1ccc(O)cc1O [MR, 4-methylresorcinol]
Mean ROS production (% of vehicle control) ([1]; Table 3C, MR 10 uM where present): 233.5^1% | synergistic decrease in ROS production, combination with GAP amino acids vs either alone [1]: did not result | Cell viability (% of vehicle control) ([2]; Table 3C, MR 10 uM where present, + menadione): 45.3%

CCOC(=O)[C@@H](N)CSSC[C@H](N)C(=O)OCC.Cl.Cl [DEC, Diethyl L-cystinate dihydrochloride]
% Protection (improvement vs. vehicle control + menadione), ROS ([1]; Table 1D, DEC 20 uM + menadione): 38.0^1,2%

Oc1ccc(CC2CCCCC2)c(O)c1 [Sample 4-CHMR, 4-(cyclohexylmethyl)resorcinol]
% Protection [3, 19]: −4.6% | Glutathione Synthesis, Mean (uM glutathione) [3, 19]: 0.07 µM | % Protection [3, 20]: −6.2% | Glutathione Synthesis, Mean (uM glutathione) [3, 20]: 0.026 µM | % Protection [3, 21]: −1.7% | Glutathione Synthesis, Mean (uM glutathione) [3, 21]: 0.147 µM | synergistic increase in GSH synthesis, combination with GAP amino acids vs either alone [3]: did not result

CC(C)c1ccc(O)cc1O [IPR, 4-isopropylresorcinol]
% Protection (improvement vs. vehicle control + menadione) [3, 6]: 6% | Glutathione Synthesis, Mean (uM glutathione) [3, 6]: 0.12 µM | % Protection (improvement vs. vehicle control + menadione) [3, 7]: 6% | Glutathione Synthesis, Mean (uM glutathione) [3, 7]: 0.12 µM | % Protection (improvement vs. vehicle control + menadione) [3, 8]: 8% | Glutathione Synthesis, Mean (uM glutathione) [3, 8]: 0.16 µM | synergistic increase in GSH synthesis, combination with GAP amino acids vs either alone [3]: synergistic increase

CCCCCc1cc(O)cc(O)c1 [Olivetol, 5-pentylresorcinol]
% Protection (improvement vs vehicle control + menadione) [3, 11]: −1% | Glutathione Synthesis, Mean (uM glutathione) [3, 11]: 0.14 µM | % Protection (improvement vs vehicle control + menadione) [3, 12]: −1% | Glutathione Synthesis, Mean (uM glutathione) [3, 12]: 0.13 µM | % Protection (improvement vs vehicle control + menadione) [3, 13]: −2% | Glutathione Synthesis, Mean (uM glutathione) [3, 13]: 0.11 µM | synergistic increase in GSH synthesis, combination with GAP amino acids vs either alone [3]: did not result

COC(=O)[C@@H](N)CSSC[C@H](N)C(=O)OC.Cl.Cl [CDME, L-Cystine dimethyl ester dihydrochloride]
% Protection (improvement vs. vehicle control + menadione), ROS [1, 22]: 18.2^2% | ROS production (% of vehicle control) [1, 22]: 107.8^2% | % Protection (improvement vs. vehicle control + menadione), ROS [1, 23]: 15.5^1,2% | ROS production (% of vehicle control) [1, 23]: 111.3^1,2% | % Protection (improvement vs. vehicle control + menadione), ROS [1, 24]: 13.3^1,2% | ROS production (% of vehicle control) [1, 24]: 114.3^1,2% | % Protection (improvement vs. vehicle control + menadione), ROS [1, 25]: 25.7^2% | ROS production (% of vehicle control) [1, 25]: 97.9^2% | % protection (improvement vs. vehicle control + menadione), cell viability [2, 22]: 30.2^1,2% | Cell viability (% of vehicle control) [2, 22]: 90.9^1,2% | % protection (improvement vs. vehicle control + menadione), cell viability [2, 23]: 33.4^1,2% | Cell viability (% of vehicle control) [2, 23]: 93.1^1,2% | % protection (improvement vs. vehicle control + menadione), cell viability [2, 24]: 24.6^1,2% | Cell viability (% of vehicle control) [2, 24]: 87.0^1,2% | % protection (improvement vs. vehicle control + menadione), cell viability [2, 25]: 51.7^1,2% | Cell viability (% of vehicle control) [2, 25]: 105.9^1,2%
